In patent US12338261B2 (SUMITOMO PHARMA ONCOLOGY, INC., priority 2015, dated 2025):
Where two headings read alike, the source gives them in different places. One block for each compound: values may come before it.

How the values were obtained:
[1] = type: in vitro ADME, rat; conditions: for % Remaining: rat, plasma
Experimental: (§1) The plasma stability of compound IB′ was determined using plasma from four species. Results for mouse, rat, dog and human are shown in Tables 5, 6, 7 and 8 respectively. Alvocidib and flumazenil were used as controls. In mouse, rat and human plasma, compound IB′ maintained 100% stability after 5 hour incubation. In dog plasma, approximately 90% of compound IB′ remained after 5 hours.

[2] = CD-1, mouse, in vivo
[3] = female SHO SCID mice, single dose
Experimental: Acute studies were performed in female SHO SCID mice using three animals per treatment group. […] Body weight measurements following oral dosing (FIGS. 2A-B) and intravenous (IV) dosing (FIG. 2C-D) were used, along with mortality and clinical observations to determine the maximum tolerated acute dose (MTDacute).

Dog plasma stability = type: in vitro ADME
Experimental: as §1

[4] = rat, in vivo, po
Experimental: (§2) Acute (i.e. single dose) toxicology studies were performed in rats. Acute studies were performed in female Sprague Dawley rats using three animals per treatment group. […] Body weight measurements following oral dosing (see FIG. 4A), along with mortality, clinical observations, food consumption (see FIG. 4B), and complete blood counts (CBCs; see Table 12) were used to determine the maximum tolerated acute dose (MTDacute).

[5] = for MTDrepeat: female SHO SCID mice, five daily doses
Experimental: Repeat dose toxicology studies were performed in female SHO SCID mice using 3 animals per treatment group. […] Body weight measurements of animals treated by oral (see FIGS. 3A-B) and intravenous (see FIG. 3C-D) dosing over the course of the 5-day repeat dosing period and subsequent 5-day observation period, along with mortality and clinical observations, were used to determine the maximum tolerated dosing schedule (MTDrepeat).

[6] = Maximum tolerated acute dose in rats
Experimental: as §2

[7] = type: in vitro ADME, mouse; conditions: for % Remaining: mouse, plasma
Experimental: as §1

Human plasma stability = type: in vitro ADME
Experimental: The plasma stability of compound IB′ was determined using plasma from four species.

[8] = Pharmacokinetic profile of alvocidib prodrugs in CD-1 mice (IV/PO)
[9] = rats, single oral dose 36 mg/kg

Structure (SMILES): CN1CC[C@H](c2c(O)cc(O)c3c(=O)cc(-c4ccccc4Cl)oc23)[C@H](O)C1 [Alvocidib]
- % Remaining ([1]; 0 h): 100.00%
- % Remaining ([1]; 0.5 h): 93.12%
- % Remaining ([1]; 1 h): 90.20%
- % Remaining ([1]; 2 h): 99.31%
- % Remaining ([1]; 3 h): 98.69%
- % Remaining ([1]; 4 h): 92.57%
- Bioavail. [2]: 102 ± 11.7 % F
- AUC0-∞ ([2]; iv, 1 mg/kg): 517.0 ± 47.0 ng·h/mL
- AUCLast ([2]; iv, 1 mg/kg): 498.0 ± 46.0 ng·h/mL
- Clearance ([2]; iv, 1 mg/kg): 31.7 ± 3.3 mL/min/kg
- Half life ([2]; iv, 1 mg/kg): 2.0 ± 0.4 h
- Vd ([2]; iv, 1 mg/kg): 5.5 ± 1.2 L/kg
- VdSS ([2]; iv, 1 mg/kg): 3.8 ± 0.6 L/kg
- AUC0-∞ ([2]; po, 10 mg/kg): 5341.1 ± 274.2 ng·h/mL
- AUCLast ([2]; po, 10 mg/kg): 5034.1 ± 145.6 ng·h/mL
- Half life ([2]; po, 10 mg/kg): 5.7 ± 0.7 h
- MTDacute ([3]; dosed intravenously): 7.5 mg/kg
- MTDacute ([3]; dosed orally): 15 mg/kg
- % Remaining (Dog plasma stability; dog plasma, 0 hours): 100.00%
- % Remaining (Dog plasma stability; dog plasma, 0.5 hours): 96.41%
- % Remaining (Dog plasma stability; dog plasma, 1 hour): 89.16%
- % Remaining (Dog plasma stability; dog plasma, 2 hours): 105.76%
- % Remaining (Dog plasma stability; dog plasma, 3 hours): 105.84%
- % Remaining (Dog plasma stability; dog plasma, 4 hours): 97.65%
- % Remaining (Dog plasma stability; dog plasma, 5 hours): 100.40%
- % Remaining (Dog plasma stability; dog plasma, 5 hours, listed as alvocidib): 100%
- HCT ([4]; 4.5 mg/kg): 43.6%
- MCH ([4]; 4.5 mg/kg): 18.7 pg
- MCHC ([4]; 4.5 mg/kg): 35.4 g/dL
- MCV ([4]; 4.5 mg/kg): 52.7 fL
- PLT ([4]; 4.5 mg/kg): 34.7 10^3/μL
- RBC ([4]; 4.5 mg/kg): 8.3 10^6/μL
- RDWA ([4]; 4.5 mg/kg): 16.0 fL
- WBC ([4]; 4.5 mg/kg): 15.4 10^3/μL
- platelet counts versus normal range ([4]; 4.5 mg/kg): outside the normal range
- HCT ([4]; 9 mg/kg): 47.1%
- MCH ([4]; 9 mg/kg): 19.3 pg
- MCHC ([4]; 9 mg/kg): 35.7 g/dL
- MCV ([4]; 9 mg/kg): 54.0 fL
- PLT ([4]; 9 mg/kg): 36.3 10^3/μL
- RBC ([4]; 9 mg/kg): 8.7 10^6/μL
- RDWA ([4]; 9 mg/kg): 16.2 fL
- WBC ([4]; 9 mg/kg): 16.8 10^3/μL
- HCT ([4]; 18 mg/kg): 47.3%
- MCH ([4]; 18 mg/kg): 19.3 pg
- MCHC ([4]; 18 mg/kg): 35.9 g/dL
- MCV ([4]; 18 mg/kg): 53.8 fL
- PLT ([4]; 18 mg/kg): 36.1 10^3/μL
- RBC ([4]; 18 mg/kg): 8.8 10^6/μL
- RDWA ([4]; 18 mg/kg): 16.1 fL
- WBC ([4]; 18 mg/kg): 16.9 10^3/μL
- abnormal food consumption patterns ([4]; 18 mg/kg): abnormal food consumption patterns were observed
- diarrhea ([4]; 18 mg/kg): did show signs of diarrhea
- MTDrepeat ([5]; dosed intravenously): 7.5 mg/kg
- MTDrepeat ([5]; dosed orally): 7.5 mg/kg
- clinical observations ([5]; mouse, in vivo, 15 mg/kg): Lethargy, body weight loss, and deaths were observed
- NOAEL ([6]; female, Sprague Dawley, rat, in vivo, po): 9 mg/kg
- % Remaining ([7]; 0 h): 100.00%
- % Remaining ([7]; 0.5 h): 93.58%
- % Remaining ([7]; 1 h): 103.12%
- % Remaining ([7]; 2 h): 97.19%
- % Remaining ([7]; 3 h): 117.38%
- % Remaining ([7]; 4 h): 115.72%
- % Remaining (Human plasma stability; human plasma, 0 hours): 100.00%
- % Remaining (Human plasma stability; human plasma, 0.5 hours): 92.61%
- % Remaining (Human plasma stability; human plasma, 1 hour): 93.54%
- % Remaining (Human plasma stability; human plasma, 2 hours): 93.29%
- % Remaining (Human plasma stability; human plasma, 3 hours): 111.62%
- % Remaining (Human plasma stability; human plasma, 4 hours): 100.25%
- % Remaining (Human plasma stability; human plasma, 5 hours): 100%

Structure (SMILES): CN1CCC(c2c(OP(=O)(O)O)cc(O)c3c(=O)cc(-c4ccccc4Cl)oc23)C(O)C1 (stereo not drawn) [Compound IB]
- MTDrepeat ([5]; dosed orally): 7.5 mg/kg
- clinical observations [6, 9]: Diarrhea, body weight loss and increased lethargy were observed
- mortality [6, 9]: one animal died on day three, one animal died on day four, and one animal died on day 5

More lines, now with the values ahead:

- conversion to alvocidib in vivo (alvocidib detected in plasma samples) [8]: did not convert to alvocidib in vivo
Structure (SMILES): C[N+]1(C)CC[C@H](c2c(O)cc(O)c3c(=O)cc(-c4ccccc4Cl)oc23)[C@H](O)C1 [F]

- conversion to alvocidib in vivo (alvocidib detected in plasma samples) [8]: did not convert to alvocidib in vivo
Structure (SMILES): CN1CC[C@H](c2c(O)cc(O)c3c(=O)cc(-c4ccccc4Cl)oc23)[C@H](OC(=O)C(C)(C)C)C1 [E]

- plasma stability (in words) [1]: unstable
- % Remaining ([1]; 0 h): 100.00%
- % Remaining ([1]; 0.5 h): 42.23%
- % Remaining ([1]; 1 h): 16.13%
- % Remaining ([1]; 2 h): 1.69%
- % Remaining ([1]; 3 h): 0.23%
- % Remaining ([1]; 4 h): 0.00%
- % Remaining ([1]; 5 h): 0.00%
- % Remaining (Dog plasma stability; dog, plasma, 0 h): 100.00%
- % Remaining (Dog plasma stability; dog, plasma, 0.5 h): 91.80%
- % Remaining (Dog plasma stability; dog, plasma, 1 h): 92.00%
- % Remaining (Dog plasma stability; dog, plasma, 2 h): 100.99%
- % Remaining (Dog plasma stability; dog, plasma, 3 h): 115.10%
- % Remaining (Dog plasma stability; dog, plasma, 4 h): 99.44%
- % Remaining (Dog plasma stability; dog, plasma, 5 h): 100.53%
- plasma stability (in words) [7]: unstable
- % Remaining ([7]; 0 h): 100.00%
- % Remaining ([7]; 0.5 h): 29.96%
- % Remaining ([7]; 1 h): 10.21%
- % Remaining ([7]; 2 h): 1.56%
- % Remaining ([7]; 3 h): 0.39%
- % Remaining ([7]; 4 h): 0.20%
- % Remaining ([7]; 5 h): 0.07%
- % Remaining (Human plasma stability; human, plasma, 0 h): 100.00%
- % Remaining (Human plasma stability; human, plasma, 0.5 h): 96.56%
- % Remaining (Human plasma stability; human, plasma, 1 h): 90.83%
- % Remaining (Human plasma stability; human, plasma, 2 h): 92.41%
- % Remaining (Human plasma stability; human, plasma, 3 h): 117.98%
- % Remaining (Human plasma stability; human, plasma, 4 h): 95.32%
- % Remaining (Human plasma stability; human, plasma, 5 h): 94.63%
Structure (SMILES): CCOC(=O)c1ncn2c1CN(C)C(=O)c1cc(F)ccc1-2 [Flumazenil]
